Laboratory results published in ChEMBL document CHEMBL1201862, “PubChem BioAssay data set” (2004).
Calls of active or inactive are those of the source.

How the values were obtained:
[1] = biological target: T1, Heat shock 70 kDa protein 1A (Homo sapiens, UniProt P0DMV8); assay: Hsp70 inhibitors, probe displacement, primary screen, biochemical, fluorescence polarization (AID 583)
[2] = biological target: T1, Heat shock 70 kDa protein 1A; assay: Hsp70 inhibitors, biochemical, TR-FRET (AID 786)
[3] = biological target: 5-hydroxytryptamine receptor 1E (Homo sapiens, UniProt P28566); assay: Counterscreen assay for S1P3 antagonists: Dose response cell-based high throughput screening assay to identify antagonists of the 5-Hydroxytryptamine Receptor Subtype 1E (5HT1E). [Related pubchem assays: 1429, 485 ]; assay type: functional
[4] = biological target: Sphingosine 1-phosphate receptor 3 (Homo sapiens, UniProt Q99500); assay: Dose response cell-based high throughput screening assay for antagonists of the Sphingosine 1-Phosphate Receptor 3 (S1P3). [Related pubchem assays: 1429, 485 ]; assay type: functional
[5] = M. tuberculosis H37Rv growth inhibitors, H37Rv strain (AID 1626); assay type: functional
Bcl-2-related protein A1 [6] = biological target: T2, Bcl-2-related protein A1 (Mus musculus, UniProt Q07440); assay: Bfl-1 inhibitors blocking BH3 peptide binding, confirmation, biochemical, TR-FRET, mouse Bfl-1 (AID 621);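 also: TR-FRET binding of GST-Bfl-1 to FITC-labelled Bid peptide via terbium antibody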
T2 sequence (Q07440 whole entry): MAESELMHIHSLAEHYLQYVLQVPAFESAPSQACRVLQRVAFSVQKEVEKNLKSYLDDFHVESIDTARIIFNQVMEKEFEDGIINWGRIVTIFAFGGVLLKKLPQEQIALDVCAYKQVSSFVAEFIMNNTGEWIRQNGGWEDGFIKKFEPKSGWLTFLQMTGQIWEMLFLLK

Bcl-2-related protein A1 [7] = biological target: T2, Bcl-2-related protein A1; assay: Bfl-1 binding inhibitors, SAR follow-up, biochemical, fluorescence polarization (AID 1070)
[8] = biological target: Glyceraldehyde-3-phosphate dehydrogenase (Homo sapiens, UniProt P04406)
Vero [9] = assay: Vero cell cytotoxicity, cytotoxicity control for flavivirus capping enzyme inhibitors (AID 588742); assay type: functional; settings: Chlorocebus sabaeus
Vero [10] = assay: cells; assay type: functional, cell-based; settings: Chlorocebus sabaeus
Protein RecA = biological target: T3, Protein RecA (Mycobacterium tuberculosis, UniProt P9WHJ3); assay: Fluorescence Cell-Free Homogeneous Dose Retest to Identify Inhibitors of RecA-Intein Splicing Activity. [Related pubchem assays (depositor defined):AID2097, AID2223, AID489010, AID492950]; assay type: functional
T3 sequence (P9WHJ3 whole entry): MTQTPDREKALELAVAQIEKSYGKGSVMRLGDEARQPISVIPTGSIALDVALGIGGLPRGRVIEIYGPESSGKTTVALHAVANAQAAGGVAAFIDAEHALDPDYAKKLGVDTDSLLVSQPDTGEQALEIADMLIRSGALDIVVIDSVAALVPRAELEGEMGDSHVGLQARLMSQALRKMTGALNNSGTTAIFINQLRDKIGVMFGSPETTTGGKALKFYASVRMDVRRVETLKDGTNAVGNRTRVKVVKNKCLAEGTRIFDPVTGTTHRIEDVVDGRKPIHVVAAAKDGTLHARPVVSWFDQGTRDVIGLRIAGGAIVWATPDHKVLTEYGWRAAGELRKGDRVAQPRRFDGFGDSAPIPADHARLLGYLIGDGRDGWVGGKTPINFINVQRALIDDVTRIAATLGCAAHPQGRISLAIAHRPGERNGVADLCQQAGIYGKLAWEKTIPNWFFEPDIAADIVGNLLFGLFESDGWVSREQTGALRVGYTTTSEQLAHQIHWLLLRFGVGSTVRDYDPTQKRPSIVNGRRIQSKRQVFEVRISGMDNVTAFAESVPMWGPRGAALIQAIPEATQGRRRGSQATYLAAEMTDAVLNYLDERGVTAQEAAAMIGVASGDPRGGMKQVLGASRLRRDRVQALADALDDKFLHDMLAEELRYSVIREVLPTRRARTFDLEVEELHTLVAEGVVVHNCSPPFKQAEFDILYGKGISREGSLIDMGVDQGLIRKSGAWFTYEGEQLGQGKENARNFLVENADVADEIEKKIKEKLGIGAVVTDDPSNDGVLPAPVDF

Vero [11] = assay: cells; assay type: functional; settings: Chlorocebus sabaeus
[12] = biological target: T4, Heat shock factor protein 1 (Mus musculus, UniProt P38532); assay: HSF1 potentiators in luciferase reporter cells, confirmation, cell-based, NIH3T3, luminescence, dose retest (AID 435004); assay type: functional;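 also: stress induced by proteasome inhibitor MG132 added 30 min after compound; luciferase reporter driven by HSF1 response element in NIH3T3 cells; actives raise luminescence as potentiators of the MG132 stress response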
T4 sequence (P38532 whole entry): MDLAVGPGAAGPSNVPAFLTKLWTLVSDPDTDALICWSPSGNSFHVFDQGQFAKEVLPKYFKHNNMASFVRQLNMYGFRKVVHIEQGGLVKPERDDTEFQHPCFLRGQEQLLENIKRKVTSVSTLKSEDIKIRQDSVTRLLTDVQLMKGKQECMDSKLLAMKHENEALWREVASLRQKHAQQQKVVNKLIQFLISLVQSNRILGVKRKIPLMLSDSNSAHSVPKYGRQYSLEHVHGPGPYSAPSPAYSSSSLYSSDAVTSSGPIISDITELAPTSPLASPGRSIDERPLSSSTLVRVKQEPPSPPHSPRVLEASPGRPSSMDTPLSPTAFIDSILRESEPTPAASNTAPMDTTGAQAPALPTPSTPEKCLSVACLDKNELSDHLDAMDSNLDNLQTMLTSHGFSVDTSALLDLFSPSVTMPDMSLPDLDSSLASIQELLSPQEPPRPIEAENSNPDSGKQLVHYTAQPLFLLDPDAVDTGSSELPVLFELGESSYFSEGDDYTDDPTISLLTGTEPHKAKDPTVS

Genome polyprotein = Genome polyprotein (dengue virus type 2, UniProt P29990); assay: Dengue-2 NS5 methyltransferase inhibitors, primary screen, biochemical, confirmation dose response (AID 588689); assay type: functional
Vero [13] = assay: host cell cytotoxicity of antiviral hits, dose response, cytotoxicity control for West Nile virus antiviral project, secondary assay (AID 1650); assay type: functional; settings: Chlorocebus sabaeus
[14] = Luminescent dose response cell-based high throughput screening assay for inhibitors of the Janus kinase 2 mutant JAK2V617F. [Related pubchem assays: 1446 (Primary screen.), 1521 (Confirmation assay.), 1486 (Counter screen.)]; assay type: functional
[15] = Luminescence Cell-Based Dose Retest to Confirm Inhibitors of Cancer Stem Cells. [Related pubchem assays (depositor defined):AID2717, AID2721]; assay type: functional; settings: Homo sapiens
[16] = biological target: T5, Replicative DNA helicase DnaB (Mycobacterium tuberculosis, UniProt P9WMR3); assay: DnaB intein splicing inhibitors, dose response, biochemical, cell-free fluorescence (AID 449749); assay type: functional
T5 sequence (P9WMR3 whole entry): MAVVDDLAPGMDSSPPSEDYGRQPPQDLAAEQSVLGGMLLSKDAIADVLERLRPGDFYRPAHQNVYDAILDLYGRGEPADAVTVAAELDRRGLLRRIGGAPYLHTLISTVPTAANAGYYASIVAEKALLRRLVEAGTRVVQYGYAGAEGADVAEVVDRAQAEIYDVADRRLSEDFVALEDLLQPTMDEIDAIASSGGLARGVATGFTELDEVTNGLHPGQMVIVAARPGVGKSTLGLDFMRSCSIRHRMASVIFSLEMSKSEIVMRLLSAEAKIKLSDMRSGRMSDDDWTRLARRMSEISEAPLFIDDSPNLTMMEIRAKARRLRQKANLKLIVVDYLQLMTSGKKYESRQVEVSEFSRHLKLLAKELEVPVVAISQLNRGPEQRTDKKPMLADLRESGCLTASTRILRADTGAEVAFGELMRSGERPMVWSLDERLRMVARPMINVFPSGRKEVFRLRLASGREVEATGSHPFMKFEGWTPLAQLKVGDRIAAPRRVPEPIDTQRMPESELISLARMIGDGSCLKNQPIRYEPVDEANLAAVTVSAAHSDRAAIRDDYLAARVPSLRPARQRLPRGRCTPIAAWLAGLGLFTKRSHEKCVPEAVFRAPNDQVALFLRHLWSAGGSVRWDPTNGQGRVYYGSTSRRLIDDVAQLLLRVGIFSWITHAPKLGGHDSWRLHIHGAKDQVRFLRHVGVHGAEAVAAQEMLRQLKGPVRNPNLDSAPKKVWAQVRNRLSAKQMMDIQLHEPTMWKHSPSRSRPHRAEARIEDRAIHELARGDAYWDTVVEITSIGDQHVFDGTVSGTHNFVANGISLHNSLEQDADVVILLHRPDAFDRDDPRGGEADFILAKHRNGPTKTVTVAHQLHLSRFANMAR

[17] = biological target: Protein-tyrosine kinase 2-beta (Homo sapiens, UniProt Q14289);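 also: potency of inhibitors of PYK2 kinase phosphorylation of poly-GT substrate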
[18] = Luminescence Cell-Based Dose Confirmation HTS to Identify Activators of 5'UTR Stem-Loop Driven Alpha-Synuclein mRNA Translation in H4 Neuroglioblastoma Cells. [Related pubchem assays: 1829 (Project Summary), 1814 (Primary HTS)]; assay type: functional
[19] = Luminescence Cell-Based Dose Response to Identify Activators of 5'UTR Stem-Loop Driven Prion Protein mRNA Translation in H4-C Neuroglioblastoma Cells. [Related pubchem assays: 1829 (Project Summary), 1814 (Primary HTS)]; assay type: functional
[20] = Luminescence Cell-Based Dose Confirmation to Identify Activators of 5'UTR Stem-Loop Driven Alpha-Synuclein mRNA Translation in H4 Neuroglioblastoma Cells. [Related pubchem assays: 1829 (Project Summary), 1814 (Primary HTS)]; assay type: functional
[21] = Luminescence Cell-Based Dose Response to Identify Activators of Luciferase Translation or Activity in H4-C Neuroglioblastoma Cells. [Related pubchem assays: 1829 (Project Summary), 1814 (Primary HTS)]; assay type: functional
[22] = Luminescence Cell-Based Dose Response HTS to Identify Activators of Luciferase Translation or Activity in H4 […] Cells. [Related pubchem assays: 1829 (Project Summary), 1814 (Primary HTS)]; assay type: functional
H4 = assay: Luminescence Cell-Based Dose Response HTS to Identify Activators of 5'UTR Stem-Loop Driven Prion Protein mRNA Translation in H4 Neuroglioblastoma Cells. [Related pubchem assays: 1829 (Project Summary), 1814 (Primary HTS)]; assay type: functional; settings: Homo sapiens

T1 sequence (P0DMV8 whole entry): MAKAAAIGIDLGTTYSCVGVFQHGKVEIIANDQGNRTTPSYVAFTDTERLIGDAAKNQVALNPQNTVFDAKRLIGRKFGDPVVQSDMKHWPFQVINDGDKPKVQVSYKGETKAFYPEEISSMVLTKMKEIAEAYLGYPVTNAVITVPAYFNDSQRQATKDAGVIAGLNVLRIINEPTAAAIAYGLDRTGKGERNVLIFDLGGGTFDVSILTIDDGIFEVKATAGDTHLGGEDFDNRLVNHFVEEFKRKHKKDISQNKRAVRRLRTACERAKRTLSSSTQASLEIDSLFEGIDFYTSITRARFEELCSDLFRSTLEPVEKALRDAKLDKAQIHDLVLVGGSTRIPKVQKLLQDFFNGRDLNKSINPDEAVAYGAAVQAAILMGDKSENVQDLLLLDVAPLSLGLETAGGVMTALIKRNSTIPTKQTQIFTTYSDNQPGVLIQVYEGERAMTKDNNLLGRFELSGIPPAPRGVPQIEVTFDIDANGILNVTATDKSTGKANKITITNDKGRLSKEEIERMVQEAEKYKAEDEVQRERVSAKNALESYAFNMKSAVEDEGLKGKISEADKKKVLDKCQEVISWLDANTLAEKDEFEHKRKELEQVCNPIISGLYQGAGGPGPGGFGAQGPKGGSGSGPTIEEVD
Chain of 5-hydroxytryptamine receptor 1E (P28566 whole entry): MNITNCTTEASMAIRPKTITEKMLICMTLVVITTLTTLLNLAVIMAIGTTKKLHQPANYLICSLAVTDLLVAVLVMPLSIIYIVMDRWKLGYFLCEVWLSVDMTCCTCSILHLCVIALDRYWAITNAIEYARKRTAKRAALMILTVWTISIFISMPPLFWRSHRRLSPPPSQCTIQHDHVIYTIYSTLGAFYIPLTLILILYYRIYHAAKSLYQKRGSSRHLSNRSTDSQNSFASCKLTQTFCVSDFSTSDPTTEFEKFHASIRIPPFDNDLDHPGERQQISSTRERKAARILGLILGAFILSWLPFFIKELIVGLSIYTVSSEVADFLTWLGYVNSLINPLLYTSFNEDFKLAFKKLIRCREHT
Chain of Protein-tyrosine kinase 2-beta (Q14289 whole entry): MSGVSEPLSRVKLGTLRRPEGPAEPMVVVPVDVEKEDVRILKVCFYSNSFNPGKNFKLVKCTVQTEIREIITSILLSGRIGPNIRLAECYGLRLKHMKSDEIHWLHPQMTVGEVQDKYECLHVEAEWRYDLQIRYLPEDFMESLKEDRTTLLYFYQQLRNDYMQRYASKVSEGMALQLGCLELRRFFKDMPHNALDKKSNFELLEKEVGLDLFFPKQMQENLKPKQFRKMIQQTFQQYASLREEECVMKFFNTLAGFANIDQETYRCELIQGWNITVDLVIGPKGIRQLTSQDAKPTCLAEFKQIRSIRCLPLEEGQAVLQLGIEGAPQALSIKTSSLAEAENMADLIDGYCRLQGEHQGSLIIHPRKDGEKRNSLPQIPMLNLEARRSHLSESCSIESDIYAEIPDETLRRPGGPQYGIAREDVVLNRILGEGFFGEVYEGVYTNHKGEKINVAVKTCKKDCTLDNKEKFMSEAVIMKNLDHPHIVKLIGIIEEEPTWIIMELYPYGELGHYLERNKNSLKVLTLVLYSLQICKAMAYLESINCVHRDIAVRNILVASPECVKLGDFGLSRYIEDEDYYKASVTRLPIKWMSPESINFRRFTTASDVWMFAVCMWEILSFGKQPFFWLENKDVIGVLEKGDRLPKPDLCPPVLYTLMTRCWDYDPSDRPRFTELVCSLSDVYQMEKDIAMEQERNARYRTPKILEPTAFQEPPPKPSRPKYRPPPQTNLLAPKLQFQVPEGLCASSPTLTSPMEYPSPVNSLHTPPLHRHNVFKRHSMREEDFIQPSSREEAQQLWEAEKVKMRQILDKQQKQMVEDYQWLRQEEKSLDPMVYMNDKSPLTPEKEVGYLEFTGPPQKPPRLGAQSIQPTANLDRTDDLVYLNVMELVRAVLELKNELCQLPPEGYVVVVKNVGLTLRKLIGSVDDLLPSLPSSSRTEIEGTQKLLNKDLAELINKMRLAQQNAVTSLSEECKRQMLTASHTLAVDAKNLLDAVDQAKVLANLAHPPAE
Chain of Sphingosine 1-phosphate receptor 3 (Q99500 whole entry): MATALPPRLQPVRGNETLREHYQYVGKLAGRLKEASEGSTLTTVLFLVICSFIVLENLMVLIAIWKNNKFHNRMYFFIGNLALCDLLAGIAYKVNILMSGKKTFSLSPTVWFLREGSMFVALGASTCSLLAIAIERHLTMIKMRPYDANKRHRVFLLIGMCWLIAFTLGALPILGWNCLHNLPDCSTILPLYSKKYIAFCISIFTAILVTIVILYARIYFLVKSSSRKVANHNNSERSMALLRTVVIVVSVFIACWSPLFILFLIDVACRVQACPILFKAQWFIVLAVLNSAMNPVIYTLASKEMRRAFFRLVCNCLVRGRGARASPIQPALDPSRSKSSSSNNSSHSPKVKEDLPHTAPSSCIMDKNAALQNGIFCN
Chain of Genome polyprotein (P29990 2492-3391 limits assumed): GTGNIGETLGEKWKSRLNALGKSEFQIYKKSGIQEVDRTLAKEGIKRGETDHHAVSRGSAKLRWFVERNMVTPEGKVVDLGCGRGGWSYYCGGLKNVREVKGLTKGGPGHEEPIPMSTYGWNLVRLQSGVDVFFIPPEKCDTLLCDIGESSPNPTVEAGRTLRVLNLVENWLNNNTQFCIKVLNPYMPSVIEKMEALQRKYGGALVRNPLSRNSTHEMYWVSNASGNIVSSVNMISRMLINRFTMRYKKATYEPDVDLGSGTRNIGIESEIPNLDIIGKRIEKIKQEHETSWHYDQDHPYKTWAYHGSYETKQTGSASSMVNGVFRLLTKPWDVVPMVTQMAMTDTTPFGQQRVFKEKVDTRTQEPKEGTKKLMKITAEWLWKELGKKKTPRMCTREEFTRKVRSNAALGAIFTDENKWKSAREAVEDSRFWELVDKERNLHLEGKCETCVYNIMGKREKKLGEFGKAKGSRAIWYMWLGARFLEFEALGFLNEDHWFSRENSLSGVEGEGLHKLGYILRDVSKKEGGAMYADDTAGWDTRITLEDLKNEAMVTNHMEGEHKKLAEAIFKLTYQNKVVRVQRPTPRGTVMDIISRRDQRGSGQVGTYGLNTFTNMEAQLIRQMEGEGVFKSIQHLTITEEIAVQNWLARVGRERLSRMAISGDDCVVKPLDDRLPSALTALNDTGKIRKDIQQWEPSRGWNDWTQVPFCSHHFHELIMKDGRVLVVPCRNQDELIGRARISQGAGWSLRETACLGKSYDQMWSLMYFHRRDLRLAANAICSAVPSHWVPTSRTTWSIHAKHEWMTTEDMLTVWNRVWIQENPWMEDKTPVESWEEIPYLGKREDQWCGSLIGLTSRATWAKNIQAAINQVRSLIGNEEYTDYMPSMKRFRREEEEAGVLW
Chain of Glyceraldehyde-3-phosphate dehydrogenase (P04406 whole entry): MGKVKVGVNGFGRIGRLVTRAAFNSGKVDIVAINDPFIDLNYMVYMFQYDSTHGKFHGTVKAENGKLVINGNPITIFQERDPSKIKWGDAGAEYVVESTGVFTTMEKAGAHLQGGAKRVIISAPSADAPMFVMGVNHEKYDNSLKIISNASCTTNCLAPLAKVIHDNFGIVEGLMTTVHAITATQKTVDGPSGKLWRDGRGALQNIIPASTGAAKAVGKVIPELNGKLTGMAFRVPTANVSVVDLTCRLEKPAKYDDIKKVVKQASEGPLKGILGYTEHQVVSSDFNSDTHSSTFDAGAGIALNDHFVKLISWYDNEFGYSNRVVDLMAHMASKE

For `Cc1c(NC(=O)Nc2ccc(Cl)cc2)c(=O)n(-c2ccccc2)n1C`, the IC50 [1] was > 100 µM (not active) and the IC50 [2] was > 100 µM (not active).
With `CC1CCCCN1C(=O)Cn1cc(C(=O)c2ccco2)c2ccccc21` (stereo not given) the IC50 [3] was > 50 µM (not active) and the IC50 [4] was > 50 µM (not active).
In the case of `CCc1ccc(Nc2c([N+](=O)[O-])c(=O)oc3ccccc23)cc1`, the IC50 [5] is reported as > 100 µM (active).
With `O=C1C(Cl)=C(Cl)C(=O)N1c1cccc(Cl)c1Cl` the IC50 (Bcl-2-related protein A1 [6]) was 500 nM (active), the IC50 (Bcl-2-related protein A1 [7]) was 979 nM (active) and the IC50 [8] was > 100 µM (not active).
In the case of `Cc1ccc(NC(=O)C(=Cc2ccc(C(=O)O)cc2)C(=O)Nc2ccc(C)cc2C)c(C)c1`, the CC50 (Vero [9]) is reported as 27.3 µM (active), the IC50 (Vero [10]) is reported as 19.6 µM (active) and the EC50 (Protein RecA) is reported as 3.21 µM (active). For the same compound, the CC50 (Vero [11]) was 9.83 µM (active), the EC50 [12] was 6.71 µM (active) and the IC50 (Genome polyprotein) was > 100 µM (active). For the same compound, the CC50 (Vero [13]) was 7.51 µM (active), the IC50 [14] was 1.95 µM (active) and the AC50 [15] was 1.9 µM (active). The AC50 [16] was 2.51 µM (active).
In the case of `CCN(CC)S(=O)(=O)c1cc([N+](=O)[O-])ccc1NNC(=O)Nc1ccccc1`, the IC50 [17] is reported as > 69.5 µM (not active).
With `NNc1nc2c(F)cccc2s1` the EC50 [18] was < 100 nM (active), the EC50 [19] was > 12 µM (not active) and the EC50 [20] was > 12 µM (not active). For the same compound, the EC50 [21] was > 12 µM (not active), the EC50 [22] was 5.67 µM (active) and the EC50 (H4) was > 120 µM (not active).
